Laboratory results: patent publication US7872006B2, “Pyrazole compounds having cannabinoid receptor (CB1) antagonizing activity” (Mitsubishi Tanabe Pharma Corporation, priority 2005, dated 2011)
pIC50: −log10 of the molar value. Where two headings read alike, the source gives them in different places.

Biological target: T1, Human CB1 receptor (Homo sapiens, UniProt P21554)
T1 construct: host or cells: CHO cells; the membrane fraction was prepared in house from the purchased recombinant line
Assay: Human CB1 receptor binding assay ([3H]-CP55940 displacement)
Protocol: [Human CB1 Receptor Binding Assay]
(1) Preparation of human CB1 receptor (membrane fraction):
Human CB1-expressing cell line: hCB1/CHO#C3 (Euroscreen)
The receptor-expressing cells cultivated in the above medium were washed with phosphate buffer (×2) and thereto was added Buffer A (2 mL) under ice-cooling or 4° C. (the following procedures were also carried out at the same temperature). The cells were collected by using a cell-scraper, treated by a microtip-type ultrasonicator for 20 seconds (pulse-on: 2 sec, pulse-off: 1 sec) and centrifuged (500×g, 15 min). The supernatant was separated and centrifuged (43000×g, 60 min). The resultant pellet was suspended in Buffer A and homogenized with a potter-type homogenizer. To the homogenate was added an equal volume of 80% glycerol and stored at −80° C.
(2) Procedure of CB1 Receptor Binding Assay:
Radioligand: [^3H]-CP55940 (30 nM/7992 dpm/μL) prepared by diluting 8.3 µM solution of the radioligand with Buffer B
Each well of the assay plate (96-well, Costar Code#3371) was filled with Buffer B (140 μL), a solution of each test compound in dimethylsulfoxide (20 μL, […]), radioligand (20 μL) and membrane preparation (20 μL, 0.5 µg/20 μL) and the mixture was incubated at 30° C. for 90 minutes to proceed the binding reaction. The reaction mixture was harvested to each well of a plate presoaked with the above coating solution (Packard Unifilter GF/B, #6005177). The plate was washed with Buffer C (200 μL×10) and dried at 50° C. for 1 hour and Microscinti 40 (40 μL) was added to each well. The bound radiolabel was quantitated by scintilation counting (Top Count NXT, Packard). IC50 value of each test compound against the radioligand-binding to CB1 receptors was calculated on the basis of the quantitated radiolabel activity by using Graphpad Prism 3.02.

[1] = radioligand [3H]-CP55940, membrane fraction of hCB1/CHO cells, 30° C. for 90 minutes, read-out: IC50

T1 sequence (P21554 whole entry): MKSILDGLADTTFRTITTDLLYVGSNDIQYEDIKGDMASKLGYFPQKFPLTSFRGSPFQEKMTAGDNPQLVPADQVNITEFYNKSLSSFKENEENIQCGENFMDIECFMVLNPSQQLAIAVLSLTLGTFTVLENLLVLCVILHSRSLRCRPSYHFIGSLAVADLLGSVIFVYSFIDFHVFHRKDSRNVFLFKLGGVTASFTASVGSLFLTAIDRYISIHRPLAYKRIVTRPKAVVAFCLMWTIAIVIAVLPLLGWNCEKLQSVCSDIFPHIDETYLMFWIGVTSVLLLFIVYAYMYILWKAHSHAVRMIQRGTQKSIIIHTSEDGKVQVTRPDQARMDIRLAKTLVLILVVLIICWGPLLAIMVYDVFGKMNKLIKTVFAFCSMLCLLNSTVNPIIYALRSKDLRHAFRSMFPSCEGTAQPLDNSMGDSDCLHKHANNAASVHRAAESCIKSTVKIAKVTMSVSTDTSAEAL

| pIC50 [1] | Molecule | pIC50 |
| --- | --- | --- |
|  | COc1c(C(=O)NN2CCN(c3ccc(C(F)F)cn3)CC2)nn(-c2ccccc2Cl)c1-c1ccc(Cl)cc1 [Example 339, 1-(2-chlorophenyl)-5-(4-chlorophenyl)-3-[N-[4-(5-difluoromethyl-pyridin-2-yl)piperazin-1-yl]carbamoyl]-4-methoxy-1H-pyrazole] | 7.00 to 8.00 |
| > 8.00 | O=C(NN1CCC(F)(F)CC1)c1nn(-c2ccccc2Cl)c(-c2ccc(Cl)cc2)c1OC(F)F [Example 307] |  |
| 7.00 to 8.00 | COc1c(C(=O)NN(C)C)nn(-c2ccccc2Cl)c1-c1ccc(C(F)(F)F)cc1 [Example 134] |  |
| 6.30 to 7.00 | CCNC(=O)NCCOc1c(C(=O)NN2CCCC2)nn(-c2ccccc2Cl)c1-c1ccc(Cl)cc1 [Example 288, 1-(2-chlorophenyl)-5-(4-chlorophenyl)-4-[2-(N′-ethylureido)ethoxy]-3-[N-(1-pyrrolidinyl)carbamoyl]-1H-pyrazole] |  |
| 7.00 to 8.00 | CCNC1(C(N)=O)CCN(C(=O)c2nn(-c3ccccc3Cl)c(-c3ccc(Cl)cc3)c2O)CC1 [Example 279, 1-(2-chlorophenyl)-5-(4-chlorophenyl)-4-hydroxy-3-[[4-carbamoyl-4-(ethylamino)piperidino]carbonyl]-1H-pyrazole] |  |
| 7.00 to 8.00 | NC(=O)COc1c(C(=O)NN2CCC(C(N)=O)(c3ccccc3)CC2)nn(-c2ccccc2Cl)c1-c1ccc(Cl)cc1 [Example 276, 1-(2-chlorophenyl)-5-(4-chloro-phenyl)-4-carbamoylmethoxy-3-[N-(4-carbamoyl-4-phenylpiperidin-1-yl)carbamoyl]-1H-pyrazole] |  |
|  | COc1c(C(=O)NC2CCCC2)nn(-c2ccccc2Cl)c1-c1ccc(Cl)cc1 [Example 55] | 7.00 to 8.00 |
| 7.00 to 8.00 | COCCOc1c(C(=O)NN2CCCC2)nn(-c2ccccc2Cl)c1-c1ccc(C(F)(F)F)cc1 [Example 148] |  |
| 7.00 to 8.00 | COc1c(C(=O)NCC(F)(F)F)nn(-c2ccccc2Cl)c1-c1ccc(Cl)cc1 [Example 4] |  |
| 7.00 to 8.00 | COc1c(C(=O)NN2CCN(C(=O)c3ccc(F)cc3F)CC2)nn(-c2ccccc2Cl)c1-c1ccc(Cl)cc1 [Example 216] |  |

| Molecule | pIC50 [1] | pIC50 |
| --- | --- | --- |
| COc1c(C(=O)CN2CCS(=O)(=O)CC2)nn(-c2ccccc2Cl)c1-c1ccc(Cl)cc1 [Example 36, 1-(2-chlorophenyl)-5-(4-chlorophenyl)-4-methoxy-3-[1-(1,1-dioxothiomorpholino)acetyl]-1H-pyrazole] | 7.00 to 8.00 |  |
| 1-(2-chlorophenyl)-5-(4-chlorophenyl)-4-hydroxy-3-[N′-(4-tetrahydropyranyl)ureido]-1H-pyrazole [Example 18] | 7.00 to 8.00 |  |
